The values that follow come from patent publication US7276510B2, “HIV replication inhibitors” (Janssen Pharmaceutica, Inc., priority 2000, dated 2007).

SMILES strings stand for the structures. pIC50: −log10 of the molar value. Counter-ions that a name gives are not always drawn.

In one data set the test system is HIV-infected MT-4 cells. Kind of data set: Inhibition of the HIV-induced cytopathic effect in MT-4 cells (MTT). The class given is cell-based. Conditions: for SI (selectivity index, ratio of CC50 to IC50): CC50/IC50 in MT-4 cells; for pIC50: Human immunodeficiency virus 1, MT4, read-out: IC50 (50% inhibitory concentration; dose achieving 50% protection), HIV-infected MT-4 cells, MTT, OD 540 nm. Here is the method: (§1) A rapid, sensitive and automated assay procedure was used for the in vitro evaluation of anti-HIV agents. An […] T4-cell line, MT-4, which was previously shown (Koyanagi et al., Int. J. Cancer, 36, 445-451, 1985) to be highly susceptible to and permissive for HIV infection, served as the target cell line. Inhibition of the HIV-induced cytopathic effect was used as the end point. The viability of both HIV- and mock-infected cells was assessed spectrophotometrically via the in situ reduction of 3-(4,5-dimethylthiazol-2-yl)-2,5-diphenyltetrazolium bromide (MTT). […] The percent protection achieved by the compound in HIV-infected cells was calculated by the following formula:
(§2) [formula] whereby (ODT)HIV is the optical density measured with a given concentration of the test compound in HIV-infected cells; (ODC)HIV is the optical density measured for the control untreated HIV-infected cells; (ODC)MOCK is the optical density measured for the control untreated mock-infected cells; all optical density values were determined at 540 nm. […] The ratio of CC50 to IC50 was defined as the selectivity index (SI).
(Damage to the host cells serves as the signal in cytopathic effect assays.)

Data set [1] in a line: Cytotoxicity in mock-infected MT-4 cells (MTT). The class given is cell-based. To be noted: human, OD 540 nm. Here is the method:
as §1, §2

With `CNC(=O)c1cc(Nc2c(C)cc(C)cc2C)nc(Nc2ccc(C#N)cc2)n1` [Compound 63], in the data set on HIV-infected MT-4 cells, the “SI (selectivity index, ratio of CC50 to IC50)” value came to 7946 and the pIC50 was 8.30. Further, the CC50 in data set [1] turned out to be 39800 nM. In turn, `N#Cc1ccc(Nc2nc(Cc3c(Cl)cccc3Cl)cc(-n3ccnc3)n2)cc1` [Compound 39] yielded a melting point of 275 to 285 °C.

With `CNCc1nc(Nc2ccc(C#N)cc2)nc(Oc2c(C)cc(C#N)cc2C)c1Br` [Compound 74], the melting point lay in the range of 223 to 224 °C.

For `Cc1cc(C#N)cc(C)c1Oc1nc(Cl)nc(Nc2ccc(C#N)cc2)n1` [Compound 60], the melting point lay within 260 to 265 °C. Same read-out and setting: then `N#Cc1ccc(Nc2nc(F)nc(Cc3c(Cl)cccc3Cl)n2)cc1` [Compound 49], with 199 to 201 °C; and `Cc1cc(C#N)cc(C)c1Oc1nc(Nc2ccc(C#N)cc2)nc(CCl)c1Br` [Compound 73], with 238 to 240 °C; and `N#Cc1ccc(Nc2nc(Cl)nc(Cc3c(Cl)cccc3Cl)n2)cc1` [Compound 1, 4-[[4-chloro-6-[(2,6-dichlorophenyl)methyl]-1,3,5-triazin-2-yl]amino]-benzonitrile], with 243 to 244 °C. For `Cc1cc(C)c(Nc2cc(C(N)=O)nc(Nc3ccc(C#N)cc3)n2)c(C)c1` [Compound 61, 2-[(4-cyanophenyl)amino]-6-[(2,4,6-trimethylphenyl)amino]-4-pyrimidine carboxamide], in the data set on HIV-infected MT-4 cells, the “SI (selectivity index, ratio of CC50 to IC50)” value was determined as 19968 and the pIC50 is 8.60. In data set [1], this molecule gave a CC50 of 50100 nM.

Consider `N#Cc1ccc(Nc2nc(Cc3c(Cl)cccc3Cl)nc(N3CCC(=O)O3)n2)cc1` [Compound 35], for which, in the data set with HIV-infected MT-4 cells, the “SI (selectivity index, ratio of CC50 to IC50)” value came out at 794 and the pIC50 was 7.20. The molecule also registered a CC50 in data set [1] of 50100 nM. Regarding `N#Cc1ccc(Nc2nc(O)nc(Cc3c(Cl)cccc3Cl)n2)cc1` [Compound 10], the melting point was > 300 °C. Turning to `Cc1cc(C)c(Nc2cc(C(=O)N(C)C)nc(Nc3ccc(C#N)cc3)n2)c(C)c1` [Compound 66], in the data set with HIV-infected MT-4 cells, the “SI (selectivity index, ratio of CC50 to IC50)” value is 19950 and the pIC50 is 8.80. In addition, in data set [1], it took 31600 nM to reach half-maximal cytotoxicity (CC50). Molecule `N#Cc1ccc(Nc2nc(S)nc(Cc3c(Cl)cccc3Cl)n2)cc1` [Compound 6] registered a melting point of 254 to 255 °C. On the same count and under the same terms, the same measure for `Clc1cccc(Cl)c1Cc1nc(Nc2ccc(-c3nnn[nH]3)cc2)nc(-c2nnn[nH]2)n1` [Compound 42]: 249 to 252 °C.

On to `Cc1cc(C#N)cc(C)c1Oc1nc(Nc2ccc(C#N)cc2)nc(CO)c1Br` [Compound 13, 4-[[[5-bromo-4-(4-cyano-2,6-dimethylphenoxy)-6-hydroxymethyl]-2-pyrimidinyl]amino]benzonitrile], for which, in the data set on HIV-infected MT-4 cells, the “SI (selectivity index, ratio of CC50 to IC50)” value was >25000 and the pIC50 is 8.40. Besides, the CC50 in data set [1] is > 100000 nM. In the case of `N#Cc1ccc(Nc2nc(Cc3c(Cl)cccc3Cl)nc(N3CC(O)CO3)n2)cc1` (stereo not shown) (as salt: trifluoroacetate) [Compound 11], the melting point stood at 175 °C. The same measure, in the same setting: then `N#Cc1ccc(Nc2nc(Cc3c(Cl)cccc3Cl)nc(-n3[nH]nnc3=N)n2)cc1` [Compound 46], with 302 to 304 °C; and `C=CCONc1nc(Cc2c(Cl)cccc2Cl)nc(Nc2ccc(C#N)cc2)n1` (as salt: trifluoroacetate) [Compound 43], with 225 to 227 °C; and `N#Cc1ccc(Nc2nc(Cc3c(Cl)cccc3Cl)nc(N3C(=O)CCCC3=O)n2)cc1` [Compound 37], with 278 to 282 °C. The same measure, in the same setting: then `N#Cc1ccc(Nc2nc(Cl)nc(Oc3c(Cl)cc(Cl)cc3Cl)n2)cc1` [Compound 72], with 238 to 239 °C.

In turn, `NC(=O)c1ccc(Nc2nc(Cc3c(Cl)cccc3Cl)nc(C(N)=O)n2)cc1` [Compound 40] gave a melting point of 287 to 295 °C. On the same count and under the same terms, the same measure for `C[S+]([O-])c1nc(Cc2c(Cl)cccc2Cl)nc(Nc2ccc(C#N)cc2)n1` (stereo not shown) [Compound 8]: 219 to 221 °C.

By CC50 is commonly meant the concentration at which the toxic effect on the cells reaches its halfway point. What is called melting point is the temperature, or range, at which the solid turns liquid.
